# ChEMBL document CHEMBL6087420, “Synthesis and pharmacodynamic evaluation of 2-aminoindole derivatives against influenza A virus in vitro/vivo” (Eur J Med Chem, 2025)
# The source made the active and inactive calls. No cut-off for these calls is given here.
# What was measured:
# [1] = Cytotoxicity against dog MDCK cells after 72 hrs incubation by MTT assay; format: toxicity, cell-based, Canis lupus familiaris
# [2] = test system: Influenza A virus; assay: Anti-influenza activity against influenza A virus H1NI (A/Weiss/43) infected in dog MDCK cells assessed as virus inhibition rate at 0.625 uM incubated for 72 hrs by MTT assay; format: functional, organism-based
# [3] = test system: Influenza A virus; assay: Anti-influenza activity against influenza A virus H1NI (A/Weiss/43) infected in dog MDCK cells assessed as virus inhibition rate at 100 uM incubated for 72 hrs by MTT assay; format: functional, organism-based
# [4] = test system: Influenza A virus; assay: Anti-influenza activity against influenza A virus H1NI (A/Weiss/43) infected in dog MDCK cells assessed as virus inhibition rate incubated for 72 hrs by MTT assay; format: functional, organism-based
# [5] = test system: Influenza A virus; assay: Anti-influenza activity against influenza A virus H1NI (A/Virginia/ATCC2/2009) infected in dog MDCK cells incubated for 72 hrs by MTT assay; format: functional, organism-based
# [6] = Selectivity index, ratio of CC50 for dog MDCK cells to EC50 for antiviral activity against Influenza A virus H1N1 (A/Weiss/43) infected in MDCK cells; format: toxicity, cell-based
# [7] = Selectivity index, ratio of CC50 for dog MDCK cells to EC50 for antiviral activity against Influenza A virus […] H3N2 (A/California/2014) infected in MDCK cells; format: toxicity, cell-based; conditions: read-out: Selectivity Index
# [8] = test system: Influenza A virus; assay: Anti-influenza activity against influenza A virus H3N2 (A/California/2014) infected in dog MDCK cells incubated for 72 hrs by MTT assay; format: functional, organism-based
# [9] = Selectivity index, ratio of CC50 for dog MDCK cells to EC50 for antiviral activity against Influenza A virus H1NI (A/Virginia/ATCC2/2009) infected in MDCK cells; format: toxicity, cell-based; conditions: read-out: Selectivity Index
# [10] = test system: Influenza A virus; assay: Inhibition of influenza A virus infection induced apoptosis in MDCK cells infected with influenza virus assessed as viable cells at 50 uM incubated for 36 hrs by AnnexinV-FITC/PI staining based flow cytometry (reference value: 66.9%); format: functional
# [11] = test system: Influenza A virus; assay: Inhibition of influenza A virus infection induced apoptosis in MDCK cells infected with influenza virus assessed as early apoptotic cells at 50 uM incubated for 36 hrs by AnnexinV-FITC/PI staining based flow cytometry (reference value: 18.2%); format: functional; parameters: scale not given: the % may be the effect or the level left
# [12] = test system: Influenza A virus; assay: Inhibition of influenza A virus infection induced apoptosis in MDCK cells infected with influenza virus assessed as late apoptotic cells at 50 uM incubated for 36 hrs by AnnexinV-FITC/PI staining based flow cytometry (reference value: 13.2%); format: functional; parameters: scale not given: the % may be the effect or the level left
# [13] = test system: Influenza A virus; assay: Inhibition of influenza A virus infection induced apoptosis in MDCK cells infected with influenza virus assessed as necrotic cells at 50 uM incubated for 36 hrs by AnnexinV-FITC/PI staining based flow cytometry (reference value: 1.79%); format: functional; parameters: scale not given: the % may be the effect or the level left
SMILES,CC50 at 72 h [1],Virus inhibition rate at 0.625 uM [2],Activity [3],other results
Cc1ccc(S(=O)(=O)n2c(NS(C)(=O)=O)c(-c3cccs3)c3ccccc32)cc1,53.6 µM,Not_active,inactive,
Cc1ccc(S(=O)(=O)n2c(NS(=O)(=O)c3ccc(Cl)cc3)c(-c3ccccc3)c3ccccc32)cc1,< 6.25 µM,Not_active,inactive,
Cc1ccc(S(=O)(=O)n2c(NS(=O)(=O)c3ccc([N+](=O)[O-])cc3)c(-c3ccccc3)c3ccccc32)cc1,< 6.25 µM,Not_active,inactive,
Cc1ccc(S(=O)(=O)n2c(NS(C)(=O)=O)c(-c3ccccc3)c3cc(Br)ccc32)cc1,< 6.25 µM,Not_active,inactive,
Cc1ccc(S(=O)(=O)n2c(NS(C)(=O)=O)c(-c3ccccc3Cl)c3ccccc32)cc1,20.9 µM,Not_active,inactive,
NC(=O)c1ncn([C@@H]2O[C@H](CO)[C@@H](O)[C@H]2O)n1 [RIBAVIRIN],513 µM,,,EC50 [4]: 7.33 µM; EC50 ([5]; mdck): 8.2 µM; selectivity ratio ([6]; read-out: Selectivity Index): 70; selectivity ratio [7]: 40; EC50 [8]: 12.8 µM; selectivity ratio [9]: 62.6; Activity [10]: 92.8%; Activity [11]: 3.8%; Activity [12]: 1.62%; Activity [13]: 1.74%
CS(=O)(=O)Nc1c(-c2ccccc2)c2ccccc2n1S(=O)(=O)c1ccccc1,36.4 µM,Not_active,inactive,
Cc1ccc(S(=O)(=O)n2c(NS(C)(=O)=O)c(-c3ccccc3)c3ccc(F)cc32)cc1,22.8 µM,Not_active,inactive,
Cc1ccc(S(=O)(=O)n2c(NS(C)(=O)=O)c(-c3ccccc3C)c3ccccc32)cc1,43 µM,Not_active,inactive,
Cc1ccc(S(=O)(=O)n2c(NS(C)(=O)=O)c(-c3ccccc3)c3cc(F)ccc32)cc1,24.4 µM,Not_active,inactive,
Cc1ccc(S(=O)(=O)n2c(NS(C)(=O)=O)c(-c3cccc(F)c3)c3ccccc32)cc1,55 µM,Not_active,inactive,
Cc1ccc(S(=O)(=O)n2c(NS(C)(=O)=O)c(-c3ccc(F)cc3)c3ccccc32)cc1,41 µM,Not_active,inactive,
CS(=O)(=O)Nc1c(-c2ccccc2)c2ccccc2n1S(=O)(=O)c1ccc([N+](=O)[O-])cc1,55.6 µM,Not_active,inactive,
Cc1ccc(S(=O)(=O)n2c(NS(C)(=O)=O)c(-c3ccccc3)c3cc(Cl)ccc32)cc1,12.8 µM,Not_active,inactive,
Cc1ccc(S(=O)(=O)n2c(NS(C)(=O)=O)c(-c3ccccc3)c3ccc(C)cc32)cc1,5.45 µM,Not_active,inactive,
Cc1ccc(S(=O)(=O)n2c(NS(C)(=O)=O)c(-c3ccccc3)c3ccccc32)cc1,59 µM,Not_active,inactive,
Cc1ccc(S(=O)(=O)n2c(NS(C)(=O)=O)c(-c3ccccc3)c3c(C)cc(C)cc32)cc1,357 µM,Not_active,inactive,

SMILES,CC50 at 72 h [1],Virus inhibition rate at 0.625 uM [2],Activity [3],other results
CCOC(=O)C1=C[C@@H](OC(CC)CC)[C@H](NC(C)=O)[C@@H](N)C1 [OSELTAMIVIR],> 800 µM,,,"EC50 [4]: 7.1 µM; EC50 ([5]; Influenza A virus, H1NI (A/Virginia/ATCC2/2009), MDCK, 72 h): 11.7 µM; selectivity ratio ([6]; read-out: Selectivity Index): > 107; selectivity ratio [7]: > 30.4; EC50 [8]: 26.3 µM; selectivity ratio [9]: > 68.6; Activity [10]: 91.7%; Activity [11]: 3.85%; Activity [12]: 2.33%; Activity [13]: 2.11%"
COc1ccc2c(-c3ccccc3)c(NS(C)(=O)=O)n(S(=O)(=O)c3ccc(C)cc3)c2c1,31.6 µM,Not_active,inactive,
Cc1ccc(S(=O)(=O)n2c(NS(C)(=O)=O)c(-c3ccccc3F)c3ccccc32)cc1,< 6.25 µM,Not_active,inactive,
CS(=O)(=O)Nc1c(-c2ccccc2)c2ccccc2n1S(C)(=O)=O,341 µM,Not_active,inactive,
Cc1ccc(S(=O)(=O)n2c(NS(C)(=O)=O)c(-c3ccc(Cl)cc3)c3ccccc32)cc1,14.8 µM,Not_active,inactive,
CS(=O)(=O)Nc1c(-c2ccccc2)c2ccccc2n1S(=O)(=O)c1ccc(Cl)cc1,14.6 µM,Not_active,inactive,
Cc1ccc(S(=O)(=O)n2c(NS(C)(=O)=O)c(-c3ccccc3)c3cc(C)ccc32)cc1,21.3 µM,Not_active,inactive,
Cc1ccc(S(=O)(=O)n2c(NS(C)(=O)=O)c(-c3cccc(C)c3)c3ccccc32)cc1,16.5 µM,Not_active,inactive,
Cc1ccc(S(=O)(=O)n2c(NS(C)(=O)=O)c(-c3cccc(Br)c3)c3ccccc32)cc1,16.9 µM,Not_active,inactive,
COc1ccc(-c2c(NS(C)(=O)=O)n(S(=O)(=O)c3ccc(C)cc3)c3ccccc23)cc1,43.6 µM,,,EC50 [4]: 2 µM; selectivity ratio ([6]; read-out: Ratio CC50/EC50): 21.8
Cc1ccc(S(=O)(=O)n2c(NS(C)(=O)=O)c(-c3ccc(Br)cc3)c3ccccc32)cc1,13.2 µM,Not_active,inactive,
Cc1ccc(S(=O)(=O)Nc2c(-c3ccccc3)c3ccccc3n2S(=O)(=O)c2ccc(C)cc2)cc1,414 µM,Not_active,inactive,
Cc1ccc(-c2c(NS(C)(=O)=O)n(S(=O)(=O)c3ccc(C)cc3)c3ccccc23)cc1,14.1 µM,Not_active,inactive,
COc1ccc(S(=O)(=O)n2c(NS(C)(=O)=O)c(-c3ccccc3)c3ccccc32)cc1,12.6 µM,Not_active,inactive,
COc1ccc(S(=O)(=O)Nc2c(-c3ccccc3)c3ccccc3n2S(=O)(=O)c2ccc(C)cc2)cc1,434 µM,Not_active,inactive,
Cc1ccc(S(=O)(=O)n2c(NS(C)(=O)=O)c(-c3cccc(Cl)c3)c3ccccc32)cc1,67.1 µM,Not_active,inactive,
Cc1ccc(S(=O)(=O)n2c(NS(=O)(=O)c3ccccc3)c(-c3ccccc3)c3ccccc32)cc1,109 µM,Not_active,inactive,
